In patent US4593104A, “2-halo-N-(azole-1-yl-methyl)-substituted acetanilides” (BASF Aktiengesellschaft, priority 1976, dated 1986):
Where “and” joins values, the source holds several entries; their conditions need not be identical. Identical values can stand only once.

Columns and labels:
Glyc. max [1] = assay: preemergence application in the open, % damage; format: in vivo, Glycine max
Protocol: (§1) The experiments were carried out on small plots. The soil was a sandy loam having a pH of from 5 to 6 and containing from 1 to 1.5% humus. The treatment was preemergence, the active ingredients being applied immediately or at the latest 3 days after sowing. The crop plants were sown in rows. The weed flora was made up of the most widely varying species and was natural; the weed flora depended on the time of the year and in part on the crop (e.g., spring-germinating, summer-germinating). The substances were emulsified or suspended in water as the vehicle, and applied by means of a motor-driven plot spray mounted on a hitch. When no rain fell, the plots were watered to ensure germination and growth of the crop plants and weeds. All the experiments were run for several weeks. Over this period, assessments were made at certain intervals on the 0 to 100 scale.

Cyp. diff. = assay: preemergence treatment in the greenhouse, % damage; format: in vivo
In short: (§2)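 Greenhouse herbicide test at rates in kg/ha a.i. Pre-em soil spray right after sowing, then irrigation and hooding; post-em on 3–10 cm plants. Rated 0–100 over 4–6 weeks.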

Amar. retro. [2] = assay: preemergence treatment in the greenhouse, % damage; format: in vivo
In short: as §2

Sorgh. halep. = assay: preemergence treatment in the greenhouse, % damage; format: in vivo
In short: as §2

Chrys. seget. [3] = assay: preemergence treatment in the greenhouse, % damage; format: in vivo
In short: as §2

Echin. c.g. [4] = assay: preemergence treatment in the greenhouse, % damage; format: in vivo
In short: as §2

Poa annua = assay: preemergence treatment in the greenhouse, % damage; format: in vivo
In short: as §2

Alopec. myosur. [5] = assay: preemergence treatment in the greenhouse, % damage; format: in vivo
In short: as §2

Zea mays = assay: preemergence treatment in the greenhouse, % damage; format: in vivo
In short: as §2

Euph. gen. = assay: preemergence treatment in the greenhouse, % damage; format: in vivo
In short: as §2

Bromus spp. = assay: preemergence treatment in the greenhouse, % damage; format: in vivo
In short: as §2

Solanum nigrum = assay: preemergence treatment in the greenhouse, % damage; format: in vivo
In short: as §2

Stell. med. [6] = assay: preemergence treatment in the greenhouse, % damage; format: in vivo
In short: as §2

Matric. spp. [7] = assay: preemergence treatment in the greenhouse, % damage; format: in vivo
In short: as §2

Setaria spp. [8] = assay: preemergence treatment in the greenhouse, % damage; format: in vivo
In short: as §2

Cyper. escul. [9] = assay: preemergence treatment in the greenhouse, % damage; format: in vivo, Cyperus esculentus
Source text: (§3) The vessels employed were plastic flowerpots having a volume of 300 cm^3; the substrate was a sandy loam containing about 1.5% humus. The seeds of the test plants (see Table 1) were sown shallow, and separated according to species. In the case of Cyperus esculentus, pregerminated tubers were planted. In the preemergence treatment, the active ingredients were then immediately applied to the surface of the soil. They were suspended or emulsified in water as the vehicle, and sprayed through atomizing nozzles. After the agents had been applied, the vessels were lightly sprinkler-irrigated to set germination and growth going, and to activate the chemical agents. The vessels were then covered with transparent plastic hoods until the plants had taken root. This cover ensured uniform germination of the test plants (to the extent that this was not impaired by the chemicals), and prevented readily volatile substances from evaporating.
(§4) For postemergence treatment, the plants were first grown to a height of from 3 to 10 cm, depending on their habit, before treated. Hoods were not placed on the pots. The experiments were set up in the greenhouse, hotter areas (25° to 40° C.) being preferred for heat-loving species, and 15° to 30° C. for plants from moderate climates. The experiments were carried out for from 4 to 6 weeks. During this period the plants were tended and their reaction to the various treatments was assessed. The following tables contain the substances investigated, the application rates in kg/ha of active ingredient, and the test plant species. Assessments were made on a 0 to 100 scale, 0 denoting no damage or normal emergence, and 100 denoting no emergence or complete destruction of at least the visible plant parts.

Glyc. max [10] = assay: preemergence treatment in the greenhouse, % damage; format: in vivo, Glycine max; conditions: 0.25 kg/ha
In short: as §2

Amar. retro. [11] = assay: preemergence application in the open, % damage; format: in vivo; conditions: 1,0 kg/ha
Protocol: as §1

Echin. c.g. [12] = assay: preemergence application in the open, % damage; format: in vivo
Protocol: as §1

Chenop. spp. = assay: preemergence application in the open, % damage; format: in vivo
Protocol: as §1

Alopec. myosur. [13] = assay: preemergence application in the open, % damage; format: in vivo; conditions: 2.0 kg/ha
Protocol: as §1

Stellaria media = assay: preemergence application in the open, % damage; format: in vivo; conditions: 2.0 kg/ha
Protocol: as §1

Galins. spp. = assay: preemergence application in the open, % damage; format: in vivo
Protocol: as §1

Anth./Matric. = assay: preemergence application in the open, % damage; format: in vivo; conditions: 2.0 kg/ha
Protocol: as §1

Brassica napus = assay: preemergence application in the open, % damage; format: in vivo; conditions: 2.0 kg/ha
Protocol: as §1

Chrys. seget. [14] = assay: postemergence application in the greenhouse, % damage; format: in vivo
Source text: as §3, §4

Alopec. myosur. [15] = assay: as above; format: in vivo
Source text: as §3, §4

Avena fat. = assay: as above; format: in vivo
Source text: as §3, §4

Stell. med. [16] = assay: as above; format: in vivo
Source text: as §3, §4

Matric. spp. [17] = assay: as above; format: in vivo
Source text: as §3, §4

Setaria spp. [18] = assay: as above; format: in vivo
Source text: as §3, §4

Gossyp. hirs. = assay: preemergence treatment in the greenhouse, % damage; format: in vivo, Gosspyium hirsutum
In short: as §2

Sorgh. bicol. = assay: preemergence treatment in the greenhouse, % damage; format: in vivo, Sorghum bicolor
Source text: as §3, §4

Cyper. escul. [19] = assay: postemergence application in the greenhouse, % damage; format: in vivo, Cyperus esculentus
Source text: as §3, §4

[20] = one value printed for two rates (0.25 0.5 kg/ha)

With `CCc1cccc(CC)c1N(COC)C(=O)CCl` [prior art, 2-chloro-2',6'-diethyl-N-methoxymethyl-acetanilide, reference compound] the “% damage” value (Glyc. max [1]; 0,1 kg/ha) was 0%, the “% damage” value (Glyc. max [1]; 1,0 kg/ha) was 0% and the “% damage” value (Cyp. diff.; 0.125 kg/ha) was 65%. The “% damage” value (Cyp. diff.; 0.25 kg/ha) was 70% and 100%, the “% damage” value (Cyp. diff.; 0.5 kg/ha) was 100% and the “% damage” value (Cyp. diff.; 1.0 kg/ha) was 100%. The “% damage” value (Cyp. diff.; [20]) was 65%, the “% damage” value (Amar. retro. [2]; 0.25 kg/ha) was 72% and 80% and the “% damage” value (Amar. retro. [2]; 0.5 kg/ha) was 100% and 80%. The “% damage” value (Amar. retro. [2]; 2.0 kg/ha) was 100% and 50%, the “% damage” value (Amar. retro. [2]; [20]) was 75% and the “% damage” value (Sorgh. halep.; 0.125 kg/ha) was 40%. For the same molecule, the “% damage” value (Sorgh. halep.; 0.25 kg/ha) was 38% and 50% and 30%, the “% damage” value (Sorgh. halep.; 0.5 kg/ha) was 50% and 40% and the “% damage” value (Sorgh. halep.; 1.0 kg/ha) was 70%. For the same molecule, the “% damage” value (Chrys. seget. [3]; 0.25 kg/ha) was 30%, the “% damage” value (Chrys. seget. [3]; 0.5 kg/ha) was 0% and the “% damage” value (Echin. c.g. [4]; 0.25 kg/ha) was 95%. For the same molecule, the “% damage” value (Echin. c.g. [4]; 0.5 kg/ha) was 65% and 100%, the “% damage” value (Echin. c.g. [4]; 2.0 kg/ha) was 95% and 90% and the “% damage” value (Poa annua; 0.125 kg/ha) was 80%. The “% damage” value (Poa annua; 0.5 kg/ha) was 15%, the “% damage” value (Alopec. myosur. [5]; 0.25 kg/ha) was 40% and the “% damage” value (Alopec. myosur. [5]; 0.5 kg/ha) was 80%. The “% damage” value (Alopec. myosur. [5]; 1.0 kg/ha) was 80%, the “% damage” value (Zea mays; 1.0 kg/ha) was 0% and the “% damage” value (Zea mays; 2.0 kg/ha) was 0%. For the same molecule, the “% damage” value (Euph. gen.; 0.5 kg/ha) was 25% and 20% and 30%, the “% damage” value (Euph. gen.; 1.0 kg/ha) was 45% and 50% and the “% damage” value (Euph. gen.; 2.0 kg/ha) was 100%. The “% damage” value (Bromus spp.; 0.125 kg/ha) was 50%, the “% damage” value (Bromus spp.; 0.25 kg/ha) was 80% and 88% and the “% damage” value (Bromus spp.; 0.5 kg/ha) was 90%. The “% damage” value (Bromus spp.; 1.0 kg/ha) was 50%, the “% damage” value (Bromus spp.; 2.0 kg/ha) was 70% and the “% damage” value (Solanum nigrum; 0.25 kg/ha) was 50%. The “% damage” value (Solanum nigrum; 0.5 kg/ha) was 80% and 95%, the “% damage” value (Solanum nigrum; 1.0 kg/ha) was 100% and the “% damage” value (Solanum nigrum; 2.0 kg/ha) was 100%. The “% damage” value (Stell. med. [6]; 0.25 kg/ha) was 20%, the “% damage” value (Stell. med. [6]; 0.5 kg/ha) was 70% and the “% damage” value (Stell. med. [6]; 1.0 kg/ha) was 70%. For the same molecule, the “% damage” value (Matric. spp. [7]; 0.25 kg/ha) was 50%, the “% damage” value (Matric. spp. [7]; 0.5 kg/ha) was 80% and the “% damage” value (Matric. spp. [7]; 1.0 kg/ha) was 90%. For the same molecule, the “% damage” value (Setaria spp. [8]; 0.25 kg/ha) was 70%, the “% damage” value (Setaria spp. [8]; 0.5 kg/ha) was 60% and 90% and the “% damage” value (Setaria spp. [8]; 1.0 kg/ha) was 90% and 95% and 100%. For the same molecule, the “% damage” value (Setaria spp. [8]; 2.0 kg/ha) was 100%, the “% damage” value (Cyper. escul. [9]; 0.5 kg/ha) was 40% and the “% damage” value (Cyper. escul. [9]; 1.0 kg/ha) was 50%. For the same molecule, the “% damage” value (Cyper. escul. [9]; 2.0 kg/ha) was 60%, the “% damage” value (Glyc. max [10]) was 10% and the “% damage” value (Amar. retro. [11]) was 80%. The “% damage” value (Echin. c.g. [12]; 0,1 kg/ha) was 65%, the “% damage” value (Echin. c.g. [12]; 1,0 kg/ha) was 73% and the “% damage” value (Chenop. spp.; 0,1 kg/ha) was 10%. For the same molecule, the “% damage” value (Chenop. spp.; 1,0 kg/ha) was 13%, the “% damage” value (Alopec. myosur. [13]) was 65% and the “% damage” value (Stellaria media) was 15%. The “% damage” value (Galins. spp.; 0,1 kg/ha) was 30%, the “% damage” value (Galins. spp.; 1,0 kg/ha) was 55% and the “% damage” value (Anth./Matric.) was 53%. The “% damage” value (Brassica napus) was 5%, the “% damage” value (Chrys. seget. [14]; 1.0 kg/ha) was 15% and the “% damage” value (Chrys. seget. [14]; 2.0 kg/ha) was 15%. For the same molecule, the “% damage” value (Alopec. myosur. [15]; 1.0 kg/ha) was 60%, the “% damage” value (Alopec. myosur. [15]; 2.0 kg/ha) was 60% and the “% damage” value (Avena fat.; 1.0 kg/ha) was 50%. The “% damage” value (Avena fat.; 2.0 kg/ha) was 70%, the “% damage” value (Stell. med. [16]; 1.0 kg/ha) was 0% and the “% damage” value (Stell. med. [16]; 2.0 kg/ha) was 30%. For the same molecule, the “% damage” value (Matric. spp. [17]; 1.0 kg/ha) was 50%, the “% damage” value (Matric. spp. [17]; 2.0 kg/ha) was 50% and the “% damage” value (Setaria spp. [18]; 1.0 kg/ha) was 68%. For the same molecule, the “% damage” value (Setaria spp. [18]; 2.0 kg/ha) was 68%, the “% damage” value (Gossyp. hirs.; 0.25 kg/ha) was 0% and the “% damage” value (Gossyp. hirs.; 0.5 kg/ha) was 0%. The “% damage” value (Gossyp. hirs.; 1.0 kg/ha) was 20% and 10%, the “% damage” value (Gossyp. hirs.; 2.0 kg/ha) was 40% and the “% damage” value (Sorgh. bicol.; 1.0 kg/ha) was 0%. The “% damage” value (Sorgh. bicol.; 2.0 kg/ha) was 0%, the “% damage” value (Cyper. escul. [19]; 1.0 kg/ha) was 42% and the “% damage” value (Cyper. escul. [19]; 2.0 kg/ha) was 55%.
